From patent publication US20250177408A1, “INHIBITOR OF INTERACTION BETWEEN YAP/TAZ AND TEAD, PREPARATION THEREOF, PHARMACEUTICAL COMPOSITION THEREOF AND USE THEREOF” (ETERN BIOPHARMA (SHANGHAI) CO., LTD., priority 2022, published 2025) come the findings set out here.

Structures are written as SMILES.

Assay [1] has as its target YAP-TEAD protein interaction (His-TEAD1 (209-426) protein, Bio-YAP peptide (60-100)) (Homo sapiens, UniProt P28347). As to the kind of experiment: YAP-TEAD protein interaction HTRF experiment. It is filed as binding. Conditions: His-TEAD1 (209-426) 10 nM, Bio-YAP peptide 50 nM, read-out: Activity of each compound in blocking YAP-TEAD protein interaction (grades of IC50 values). Put shortly:
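His-TEAD1 (209-426) at 10 nM final was preincubated 20 min at RT with compounds (10-point 3-fold dilutions, duplicates, 1% DMSO), then Bio-YAP peptide, 10 min. Anti-His-Eu cryptate/streptavidin-XL665 added for 1 h at RT; HTRF read at ex 320 nm, Em665/Em620 ratio ×10000, IC50 from % inhibition.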
(In general: TR-FRET usually uses a lanthanide donor and a delayed reading to cut background.)

The subject of the next assay is MSTO-211H cells. Kind of assay: Cell proliferation inhibition experiment (CellTiter-Glo). Conditions: Homo sapiens, 96 hours, read-out: Inhibitory activity of each compound on the proliferation of MSTO-211H cells (grades of IC50 values). It is filed as cell-based. As to the method: In this example, the intracellular ATP was quantitatively determined by the CellTiter-Glo luminescence cell viability detection kit to detect the number of living cells in the culture.
Step 1: MSTO-211H (ATCC, CRL-2081TM) or NCI-H2052 (ATCC, CRL-5915TM) cells were inoculated in a 96-well plate at a density of 1500 cells per well with a volume of 100 μL per well, and the cells were incubated overnight in a 37° C., 5% carbon dioxide incubator. The culture medium used was RPMI1640 medium (GIBCO-A10491-01)+10% FBS (GIBCO-10099141C)+1% penicillin/streptomycin (Pen/Strep) (GIBCO-15070-063).
Step 2: The cells were treated with the compounds to be tested. The compounds to be tested were 3-fold diluted, and a total of 9 concentration gradients were set up; a certain volume of DMSO or the compounds to be tested was added to each well, respectively, and 2 replicates were set up for each concentration, and the final concentration of DMSO was controlled to be no higher than 0.5%. The cells were incubated for 96 hours in a 37° C., 5% carbon dioxide incubator.
Step 3: Cell viability was detected in the control group and treatment group using CellTiter-Glo Luminescent Cell Viability Assay kit (Promega, G7570). 50 μL of CellTiter-Glo was added to each well, mixed well, and incubated at room temperature for 10 minutes. The signal was read using En Vision® Multilabel Plate Reader (Perkin Elmer).
The inhibition percentage (%) was calculated using the following formula: […]
Using Graphpad Prism software, the IC50 values of the compounds inhibiting the CTG signal of cell proliferation activity was calculated.

Chain of YAP-TEAD protein interaction (His-TEAD1 (209-426) protein, Bio-YAP peptide (60-100)) (P28347 209-426): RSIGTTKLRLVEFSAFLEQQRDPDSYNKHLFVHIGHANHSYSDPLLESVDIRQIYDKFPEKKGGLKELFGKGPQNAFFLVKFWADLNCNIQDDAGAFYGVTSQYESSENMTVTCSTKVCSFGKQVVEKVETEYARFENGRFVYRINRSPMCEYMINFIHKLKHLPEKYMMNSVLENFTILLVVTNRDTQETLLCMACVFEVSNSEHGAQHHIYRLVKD

On to `NC(=O)c1cc2c(c(F)c1-c1c(Cl)c(F)cc3c1C[C@](c1ccccc1)([C@@H]1CCCN1)O3)Oc1cnn(CCF)c(=O)c1O2` (atropisomer, axis not shown) [Compound 119, (S)-8-((S)-5-Chloro-6-fluoro-2-phenyl-2-((S)-pyrrolidin-2-yl)-2,3-dihydrobenzofuran-4-yl)-9-fluoro-3-(2-fluoroethyl)-4-oxo-3,4-dihydrobenzo[5,6][1,4]dioxo[2,3-d]pyridazine-7-carboxamide], for which the IC50 was below 0.05 µM in assay [1] and 0.2 to 0.5 µM in the assay on MSTO-211H cells.

As to `NC(=O)c1cc2c(c(F)c1-c1c(Cl)c(F)cc3c1C[C@](c1ccccc1)([C@@H]1CCCN1)O3)Oc1c(cnn(CC(F)F)c1=O)O2` (atropisomer, axis not shown) [Compound 120, (S)-8-((S)-5-Chloro-6-fluoro-2-phenyl-2-((S)-pyrrolidin-2-yl)-2,3-dihydrobenzofuran-4-yl)-9-fluoro-2-(2,2-difluoroethyl)-1-oxo-1,2-dihydrobenzo[5,6][1,4]dioxo[2,3-d]pyridazine-7-carboxamide], the IC50 is below 0.05 µM in assay [1] and below 0.2 µM in the assay with MSTO-211H cells.

On to `NC(=O)c1cc2c(c(F)c1-c1c(Cl)c(F)cc3c1C[C@](c1ccccc1)([C@@H]1CCCN1)O3)Oc1cnn(CC(F)F)c(=O)c1O2` (atropisomer, axis not shown) [Compound 121, (S)-8-((S)-5-Chloro-6-fluoro-2-phenyl-2-((S)-pyrrolidin-2-yl)-2,3-dihydrobenzofuran-4-yl)-9-fluoro-3-(2,2-difluoroethyl)-4-oxo-3,4-dihydrobenzo[5,6][1,4]dioxo[2,3-d]pyridazine-7-carboxamide], for which the IC50 in assay [1] was below 0.05 µM; in the assay on MSTO-211H cells, 0.2 to 0.5 µM.

Regarding `Cn1nc2c(cc1=O)Oc1cc(C(N)=O)c(-c3c(Cl)c(F)cc4c3C[C@](c3ccccc3)([C@@H]3CCCN3)O4)c(F)c1O2` (atropisomer, axis not shown) [Compound 122, (S)-8-((S)-5-Chloro-6-fluoro-2-phenyl-2-((S)-pyrrolidin-2-yl)-2,3-dihydrobenzofuran-4-yl)-9-fluoro-2-methyl-3-oxo-2,3-trihydrobenzo [5,6][1,4]dioxo [2,3-c]pyridazine-7-carboxamide], the IC50 in assay [1] is below 0.05 µM; in the assay with MSTO-211H cells, below 0.2 µM.

For `Cn1nc2c(cc1=O)Oc1c(cc(C(N)=O)c(-c3c(Cl)c(F)cc4c3C[C@](c3ccccc3)([C@@H]3CCCN3)O4)c1F)O2` (atropisomer, axis not shown) [Compound 123, (S)-7-((S)-5-Chloro-6-fluoro-2-phenyl-2-((S)-pyrrolidin-2-yl)-2,3-dihydrobenzofuran-4-yl)-6-fluoro-1-methyl-3-oxo-2,3-trihydrobenzo [5,6][1,4]dioxo [2,3-c]pyridazine-8-carboxamide], the figures for the IC50 (in assay [1]; with MSTO-211H cells) were below 0.05 µM and 0.2 to 0.5 µM, respectively.

As for `CNC(=O)c1cc2c(c(F)c1-c1c(Cl)c(F)cc3c1C[C@](c1ccccc1)([C@@H]1CCCN1)O3)Oc1cnn(C)c(=O)c1O2` (atropisomer, axis not shown) [Compound 125, (S)-8-((S)-5-Chloro-6-fluoro-2-phenyl-2-((S)-pyrrolidin-2-yl)-2,3-dihydrobenzofuran-4-yl)-9-fluoro-N,3-dimethyl-4-oxo-3,4-dihydroxybenzo[5,6][1,4]dioxo[2,3-d]pyridazine-7-carboxamide], the IC50 is below 0.05 µM in assay [1] and below 0.2 µM in the assay with MSTO-211H cells.

As to `NC(=O)c1cc2c(c(F)c1-c1c(Cl)c(F)cc3c1C[C@](c1ccccc1)([C@@H]1CCCN1)O3)Oc1nn(C3CC3)c(=O)cc1O2` (atropisomer, axis not shown) [Compound 128, (S)-8-((S)-5-Chloro-6-fluoro-2-phenyl-2-((S)-pyrrolidin-2-yl)-2,3-dihydrobenzofuran-4-yl)-2-cyclopropyl-9-fluoro-3-oxo-2,3-hydrobenzo[5,6][1,4]dioxo [2,3-c]pyridazine-7-carboxamide], the IC50 in assay [1] was below 0.05 µM; in the assay with MSTO-211H cells it was below 0.2 µM.

For `NC(=O)c1cc2c(c(F)c1-c1c(Cl)c(F)cc3c1C[C@](c1ccccc1)([C@@H]1CCCN1)O3)Oc1cc(=O)n(C3CC3)nc1O2` (atropisomer, axis not shown) [Compound 129, (S)-8-((S)-5-Chloro-6-fluoro-2-phenyl-2-((S)-pyrrolidin-2-yl)-2,3-dihydrobenzofuran-4-yl)-2-cyclopropyl-9-fluoro-3-oxo-2,3-hydrobenzo[5,6][1,4]dioxo [2,3-c]pyridazine-7-carboxamide], the IC50 in assay [1] is below 0.05 µM; in the assay on MSTO-211H cells it was 0.2 to 0.5 µM.

With `[2H]C([2H])([2H])n1ncc2c(c1=O)Oc1c(cc(C(N)=O)c(-c3c(Cl)c(F)cc4c3C[C@](c3ccccc3)([C@@H]3CCCN3)O4)c1F)O2` (atropisomer, axis not shown) [Compound 131, (S)-8-((S)-5-Chloro-6-fluoro-2-phenyl-2-((S)-pyrrolidin-2-yl)-2,3-dihydrobenzofuran-4-yl)-9-fluoro-2-(methyl-d3)-1-oxo-1,2-dihydrobenzo[5,6][1,4]dioxo[2,3-d]pyridazine-7-carboxamide], the figures for the IC50 (in assay [1]; in the assay on MSTO-211H cells) were below 0.05 µM and below 0.2 µM, respectively.

As to `[2H]C([2H])([2H])n1ncc2c(c1=O)Oc1cc(C(N)=O)c(-c3c(Cl)c(F)cc4c3C[C@](c3ccccc3)([C@@H]3CCCN3)O4)c(F)c1O2` (atropisomer, axis not shown) [Compound 132, (S)-8-((S)-5-Chloro-6-fluoro-2-phenyl-2-((S)-pyrrolidin-2-yl)-2,3-dihydrobenzofuran-4-yl)-9-fluoro-3-(methyl-d3)-4-oxo-3,4-dihydrobenzo[5,6][1,4]dioxo[2,3-d]pyridazine-7-carboxamide], the IC50 in assay [1] is below 0.05 µM; in the assay with MSTO-211H cells, below 0.2 µM.

As for `NC(=O)c1cc2c(c(F)c1-c1c(Cl)c(F)cc3c1C[C@](c1ccccc1)([C@@H]1CCCN1)O3)Oc1c(cnn(CCC(F)(F)F)c1=O)O2` (atropisomer, axis not shown) [Compound 133, (S)-8-((S)-5-Chloro-6-fluoro-2-phenyl-2-((S)-pyrrolidin-2-yl)-2,3-dihydrobenzofuran-4-yl)-9-fluoro-2-(3,3,3-trifluoropropyl)-1-oxo-1,2-dihydrobenzo[5,6][1,4]dioxo[2,3-d]pyridazine-7-carboxamide], the IC50 is below 0.05 µM in assay [1] and below 0.2 µM with MSTO-211H cells.

Turning to `NC(=O)c1cc2c(c(F)c1-c1c(Cl)c(F)cc3c1C[C@](c1ccccc1)([C@@H]1CCCN1)O3)Oc1cnn(CCC(F)(F)F)c(=O)c1O2` (atropisomer, axis not shown) [Compound 134, (S)-8-((S)-5-Chloro-6-fluoro-2-phenyl-2-((S)-pyrrolidin-2-yl)-2,3-dihydrobenzofuran-4-yl)-9-fluoro-3-(3,3,3-trifluoropropyl)-4-oxo-3,4-dihydrobenzo[5,6][1,4]dioxo[2,3-d]pyridazine-7-carboxamide], the IC50 in assay [1] is below 0.05 µM; with MSTO-211H cells, 0.5 to 5 µM.

In the case of `Cn1ccc2c(c1=O)Oc1c(cc(C(N)=O)c(-c3c(Cl)c(F)cc4c3C[C@](c3ccccc3)([C@@H]3CCCN3)O4)c1F)O2` (atropisomer, axis not shown) [Compound 135, (S)-8-((S)-5-Chloro-6-fluoro-2-phenyl-2-((S)-pyrrolidin-2-yl)-2,3-dihydrobenzofuran-4-yl)-9-fluoro-2-methyl-1-oxo-1,2-dihydrobenzo[5,6][1,4]dioxo[2,3-c]pyridine-7-carboxamide], the values for the IC50 (in assay [1]; with MSTO-211H cells) were below 0.05 µM and below 0.2 µM, respectively.

`Cn1ccc2c(c1=O)Oc1cc(C(N)=O)c(-c3c(Cl)c(F)cc4c3C[C@](c3ccccc3)([C@@H]3CCCN3)O4)c(F)c1O2` (atropisomer, axis not shown) [Compound 136, (S)-7-((S)-5-Chloro-6-fluoro-2-phenyl-2-((S)-pyrrolidin-2-yl)-2,3-dihydrobenzofuran-4-yl)-6-fluoro-2-methyl-1-oxo-1,2-dihydrobenzo[5,6][1,4]dioxo[2,3-c]pyridine-8-carboxamide]: the IC50 in assay [1] was below 0.05 µM; in the assay with MSTO-211H cells it was below 0.2 µM.

With `NC(=O)c1cc2c(c(F)c1-c1c(Cl)c(F)cc3c1C[C@](c1ccccc1)([C@@H]1CCCN1)O3)Oc1c(ncn(CCF)c1=O)O2` (atropisomer, axis not shown) [Compound 137, (S)-7-((S)-5-Chloro-6-fluoro-2-phenyl-2-((S)-pyrrolidin-2-yl)-2,3-dihydrobenzofuran-4-yl)-6-fluoro-3-(2-fluoroethyl)-4-oxo-3,4-dihydrobenzo[5,6][1,4]dioxo [2,3-d]pyrimidine-8-carboxamide], the IC50 in assay [1] was below 0.05 µM; in the assay with MSTO-211H cells it was below 0.2 µM.
